We go through 23 compounds from patent publication US11964988B2, “Fused heterocyclic compounds as RET kinase inhibitors” (ARRAY BIOPHARMA INC., priority 2018, dated 2024).

One assay deals with G810R mutant RET kinase (Homo sapiens, UniProt P07949, G810R). Kind of assay: biochemical.
Another assay deals with RET kinase V804M (Homo sapiens, UniProt P07949, V804M). Description: RET Enzyme Assay (CisBio HTRF KinEASE-TK), V804M. The format is biochemical. As to conditions: read-out: RET V804M Enz FRET IC50. For orientation: In TR-FRET formats the signal depends on donor and acceptor labels being close together.
The target of another assay is RET kinase Wild Type (Homo sapiens, UniProt P07949). Kind of assay: biochemical.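 Also: HTRF kinase activity assay on RET enzyme, 1 h reaction at 22 °C, dual-wavelength readout as percent of control, DMSO-only wells as 100%, pre-quenched reactions as 0%.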
The target of the next assay is G810S mutant RET kinase (Homo sapiens, UniProt P07949, G810S). Description: biochemical.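 Also: HTRF KinEASE-TK kinase assay with recombinant enzyme, 1 h at 22 °C, dual-wavelength ratiometric read-out, percent of control (DMSO-only = 100, pre-quenched reaction = 0).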
Chain of G810S mutant RET kinase (P07949 29-1114 G810S): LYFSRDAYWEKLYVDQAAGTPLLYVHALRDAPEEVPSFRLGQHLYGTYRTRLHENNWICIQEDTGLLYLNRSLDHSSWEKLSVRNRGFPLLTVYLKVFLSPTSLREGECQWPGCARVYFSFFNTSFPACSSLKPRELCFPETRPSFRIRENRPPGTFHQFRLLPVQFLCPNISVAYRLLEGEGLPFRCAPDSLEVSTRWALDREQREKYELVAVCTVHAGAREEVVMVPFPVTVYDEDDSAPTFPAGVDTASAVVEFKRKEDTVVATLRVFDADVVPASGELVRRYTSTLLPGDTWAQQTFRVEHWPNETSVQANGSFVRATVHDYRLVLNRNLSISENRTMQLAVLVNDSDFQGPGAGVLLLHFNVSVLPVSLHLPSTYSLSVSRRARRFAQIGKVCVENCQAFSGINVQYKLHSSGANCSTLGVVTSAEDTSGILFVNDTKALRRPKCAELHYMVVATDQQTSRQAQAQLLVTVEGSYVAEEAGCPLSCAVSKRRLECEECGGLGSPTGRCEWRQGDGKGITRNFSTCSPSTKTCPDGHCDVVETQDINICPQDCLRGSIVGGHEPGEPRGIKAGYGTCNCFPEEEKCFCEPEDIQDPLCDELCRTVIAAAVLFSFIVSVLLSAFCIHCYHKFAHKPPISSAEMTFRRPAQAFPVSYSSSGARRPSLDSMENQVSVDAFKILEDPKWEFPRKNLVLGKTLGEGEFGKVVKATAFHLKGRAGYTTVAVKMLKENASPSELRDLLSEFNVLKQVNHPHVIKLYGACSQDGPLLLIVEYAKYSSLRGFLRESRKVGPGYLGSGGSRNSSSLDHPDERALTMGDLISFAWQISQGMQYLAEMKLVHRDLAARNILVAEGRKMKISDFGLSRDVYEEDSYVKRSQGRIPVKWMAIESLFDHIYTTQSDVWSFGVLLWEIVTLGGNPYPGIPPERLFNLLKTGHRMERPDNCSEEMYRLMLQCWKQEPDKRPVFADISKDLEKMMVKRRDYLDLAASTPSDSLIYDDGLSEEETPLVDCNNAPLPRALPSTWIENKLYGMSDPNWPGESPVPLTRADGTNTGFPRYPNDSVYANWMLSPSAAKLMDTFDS

Chain of RET kinase Wild Type (P07949 29-1114): as the sequence (P07949 29-1114 G810S) above, with S782G counted along it
Chain of G810R mutant RET kinase (P07949 29-1114 G810R): as the sequence (P07949 29-1114 G810S) above, with S782R counted along it
Chain of RET kinase V804M (P07949 29-1114 V804M): as the sequence (P07949 29-1114 G810S) above, with V776M, S782G counted along it
Procedure for G810S mutant RET kinase: (§1) The potency of compounds inhibiting several different RET kinase forms (Wild Type, V804M, G810R, & G810S) were determined using CisBio's HTRF® KinEASE™-TK assay technology. […] After a 1 hour incubation at 22° C., the extent of reaction was determined using a PerkinElmer EnVision multimode plate reader via HTRF dual wavelength detection, and the percent of control (POC) was calculated using a ratiometric emission factor. One hundred POC was determined using DMSO only samples (no compound present), and 0 POC was determined using pre-quenched control reactions.
The potency of a compound inhibiting G810R or G810S mutant RET kinase was determined using CisBio's HTRF® KinEASE™-TK assay technology. The assays contained G810R or G810S mutant RET produced at Array Biopharma, Inc. (1 nM enzyme). […] After a 1-h incubation at 22° C., the extent of reaction was determined using a PerkinElmer EnVision multimode plate reader via HTRF dual wavelength detection, and the percent of control (POC) was calculated using a ratiometric emission factor. One hundred POC was determined using no test compounds, and 0 POC was determined using pre-quenched control reactions.
Procedure for RET kinase Wild Type: as §1

As for `CO[C@H]1CCc2c(c3c(N)ncnc3n2C(C)C)-c2noc(C3CC3)c21` (single isomer, unassigned) [Example 59], the 50% inhibitory concentration (IC50) (as a rule, the midpoint of a concentration-inhibition curve) was 308 nM against G810R mutant RET kinase, 749 nM at RET kinase V804M, 275 nM against RET kinase Wild Type and 859 nM against G810S mutant RET kinase.

In the case of `CC(C)n1c2c(c3c(N)ncnc31)-c1noc(C3CC3)c1C(=O)N(CCN1CCS(=O)(=O)CC1)C2` [Example 9, 11-amino-3-cyclopropyl-5-(2-(1,1-dioxidothiomorpholino)ethyl)-7-isopropyl-6,7-dihydroisoxazolo[4,3-c]pyrimido[5′,4′:4,5]pyrrolo[3,2-e]azepin-4(5H)-one], the IC50 against G810R mutant RET kinase turned out to be 224 nM; on RET kinase V804M it was 533 nM; against RET kinase Wild Type, 103 nM; against G810S mutant RET kinase it was 298 nM.

In the case of `COc1ccc(CCN2Cc3c(c4c(N)ncnc4n3C(C)C)-c3noc(C4CC4)c3C2=O)cc1` [Example 14, 11-amino-3-cyclopropyl-7-isopropyl-5-(4-methoxyphenethyl)-6,7-dihydroisoxazolo[4,3-c]pyrimido[5′,4′:4,5]pyrrolo[3,2-e]azepin-4(5H)-one], the half-inhibitory concentration (IC50) on G810R mutant RET kinase was 252 nM; at RET kinase V804M, 865 nM; against RET kinase Wild Type, 112 nM; against G810S mutant RET kinase, 293 nM.

On to `CC(C)n1c2c(c3c(N)ncnc31)-c1noc(C3CC3)c1C(=O)N(CCc1cnn(C)c1)C2` [Example 16, 11-amino-3-cyclopropyl-7-isopropyl-5-(2-(1-methyl-1H-pyrazol-4-yl)ethyl)-6,7-dihydroisoxazolo[4,3-c]pyrimido[5′,4′:4,5]pyrrolo[3,2-e]azepin-4(5H)-one], for which the IC50 against G810R mutant RET kinase was determined as 354 nM; at RET kinase V804M, 1790 nM; on RET kinase Wild Type it was 205 nM; against G810S mutant RET kinase, 648 nM.

In the case of `CC(C)n1c2c(c3c(N)ncnc31)-c1noc(C3CC3)c1C(=O)N(C1CCN(Cc3ccccc3)C1)C2` (centres unmarked) [Example 17, 11-amino-5-(1-benzylpyrrolidin-3-yl)-3-cyclopropyl-7-isopropyl-6,7-dihydroisoxazolo[4,3-c]pyrimido[5′,4′:4,5]pyrrolo[3,2-e]azepin-4(5H)-one], the half-inhibitory concentration (IC50) against G810R mutant RET kinase worked out at 533 nM; on RET kinase V804M, 241 nM; against RET kinase Wild Type, 49 nM; against G810S mutant RET kinase, 433 nM.

`CC(C)n1c2c(c3c(N)ncnc31)-c1noc(C3CC3)c1C(=O)N(c1cnn(C)c1)C2` [Example 18, 11-amino-3-cyclopropyl-7-isopropyl-5-(1-methyl-1H-pyrazol-4-yl)-6,7-dihydroisoxazolo[4,3-c]pyrimido[5′,4′:4,5]pyrrolo[3,2-e]azepin-4(5H)-one]: the 50% inhibitory concentration (IC50) stood at 253 nM against G810R mutant RET kinase, 692 nM on RET kinase V804M, 153 nM against RET kinase Wild Type and 397 nM at G810S mutant RET kinase.

As for `CNC1CCc2c(c3c(N)ncnc3n2C(C)C)-c2noc(C3CC3)c21` (centres unmarked) [Example 27, 3-cyclopropyl-7-isopropyl-N4-methyl-4,5,6,7-tetrahydroisoxazolo[4″,3″:6′,7′]cyclohepta[1′,2′:4,5]pyrrolo[2,3-d]pyrimidine-4,11-diamine], the half-maximal inhibitory concentration (IC50) on G810R mutant RET kinase amounted to 308 nM; at RET kinase V804M, 595 nM; at RET kinase Wild Type, 142 nM; against G810S mutant RET kinase, 581 nM.

As to `CC(C)n1c2c(c3c(N)ncnc31)-c1noc(C3CC3)c1CN(C)C2` [Example 31, 3-cyclopropyl-7-isopropyl-5-methyl-4,5,6,7-tetrahydroisoxazolo[4,3-c]pyrimido[5′,4′:4,5]pyrrolo[3,2-e]azepin-11-amine], the IC50 was determined as 1320 nM against G810R mutant RET kinase, 2210 nM on RET kinase V804M, 571 nM against RET kinase Wild Type and 1320 nM on G810S mutant RET kinase.

As for `CCC(=O)N1Cc2c(noc2C2CC2)-c2c(n(C(C)C)c3ncnc(N)c23)C1` [Example 37, 1-(11-amino-3-cyclopropyl-7-isopropyl-6,7-dihydroisoxazolo[4,3-c]pyrimido[5′,4′:4,5]pyrrolo[3,2-e]azepin-5(4H)-yl)propan-1-one 2,2,2-trifluoroacetate], the values for the IC50 at G810R mutant RET kinase, against RET kinase Wild Type and on G810S mutant RET kinase were 1280 nM, 318 nM and 1220 nM, respectively.

Take `CC(C)n1c2c(c3c(N)ncnc31)-c1noc(C3CC3)c1CN(C(=O)Cc1ccccc1)C2` [Example 39, 1-(11-amino-3-cyclopropyl-7-isopropyl-6,7-dihydroisoxazolo[4,3-c]pyrimido[5′,4′:4,5]pyrrolo[3,2-e]azepin-5(4H)-yl)-2-phenylethan-1-one]: the IC50 stood at 3070 nM on G810R mutant RET kinase, 893 nM against RET kinase Wild Type and 4140 nM against G810S mutant RET kinase.

As for `CC(C)n1c2c(c3c(N)ncnc31)-c1ccc(NC(=O)CC3CC3)cc1C(=O)NC2` [Example 48, N-(12-amino-8-isopropyl-5-oxo-5,6,7,8-tetrahydrobenzo[c]pyrimido[5′,4′:4,5]pyrrolo[3,2-e]azepin-3-yl)-2-cyclopropylacetamide], the IC50 on G810R mutant RET kinase came out at 7880 nM; on RET kinase Wild Type, 2440 nM.

As to `CC(C)n1c2c(c3c(N)ncnc31)-c1ccc(NC(=O)NC3CC3)cc1C(=O)NC2` [Example 49, 1-(12-amino-8-isopropyl-5-oxo-5,6,7,8-tetrahydrobenzo[c]pyrimido[5′,4′:4,5]pyrrolo[3,2-e]azepin-3-yl)-3-cyclopropylurea], at RET kinase Wild Type, it took 8420 nM to reach half-maximal inhibition (IC50).

As to `CC(C)n1c2c(c3c(N)ncnc31)-c1ccc(Cl)c(F)c1C(=O)NC2` [Example 50, 12-amino-3-chloro-4-fluoro-8-isopropyl-7,8-dihydrobenzo[c]pyrimido[5′,4′:4,5]pyrrolo[3,2-e]azepin-5(6H)-one], the values for the 50% inhibitory concentration (IC50) against G810R mutant RET kinase, against RET kinase Wild Type and at G810S mutant RET kinase were 2570 nM, 2180 nM and 5080 nM, respectively.

As for `CC(C)n1c2c(c3c(N)ncnc31)-c1cc3cc(C#N)ccc3n1C(=O)NC2` [Example 78, 1-amino-5-isopropyl-8-oxo-5,6,7,8-tetrahydropyrimido[5″,4″:4′,5′]pyrrolo[2′,3′: 5,6][1,3]diazepino[1,7-a]indole-12-carbonitrile], the half-maximal inhibitory concentration (IC50) at G810R mutant RET kinase was found to be 507 nM; on RET kinase Wild Type it was 638 nM; against G810S mutant RET kinase, 720 nM.

On to `COc1ccc2cc3n(c2c1)C(=O)NCc1c-3c2c(N)ncnc2n1C(C)C` [Example 79, 1-amino-5-isopropyl-11-methoxy-6,7-dihydropyrimido[5″,4″:4′,5′]pyrrolo[2′,3′: 5,6][1,3]diazepino[1,7-a]indol-8(5H)-one], for which the IC50 on G810R mutant RET kinase turned out to be 270 nM; against RET kinase Wild Type it was 356 nM; at G810S mutant RET kinase it was 591 nM.

For `Cc1ccc2cc3n(c2c1)C(=O)NCc1c-3c2c(N)ncnc2n1C(C)C` [Example 80, 1-amino-5-isopropyl-11-methyl-6,7-dihydropyrimido[5″,4″:4′,5′]pyrrolo[2′,3′: 5,6][1,3]diazepino[1,7-a]indol-8(5H)-one], the concentration for half-maximal inhibition (IC50) came out at 320 nM against G810R mutant RET kinase, 195 nM at RET kinase Wild Type and 404 nM against G810S mutant RET kinase.

Turning to `CC(C)n1c2c(c3c(N)ncnc31)-c1cc3ccc(C(F)(F)F)cc3n1C(=O)NC2` [Example 82, 1-amino-5-isopropyl-11-(trifluoromethyl)-6,7-dihydropyrimido[5″,4″:4′,5′]pyrrolo[2′,3′: 5,6][1,3]diazepino[1,7-a]indol-8(5H)-one], the IC50 against G810R mutant RET kinase came to 420 nM; against RET kinase Wild Type it was 358 nM; against G810S mutant RET kinase, 821 nM.

As to `CC(C)n1c2c(c3c(N)ncnc31)-c1cc3ccc(Cl)cc3n1C(=O)NC2` [Example 84, 1-amino-11-chloro-5-isopropyl-6,7-dihydropyrimido[5″,4″:4′,5′]pyrrolo[2′,3′: 5,6][1,3]diazepino[1,7-a]indol-8(5H)-one], the half-inhibitory concentration (IC50) was 244 nM against G810R mutant RET kinase, 182 nM against RET kinase Wild Type and 634 nM against G810S mutant RET kinase.

Turning to `COc1ccc2c(c1)cc1n2C(=O)NCc2c-1c1c(N)ncnc1n2C(C)C` [Example 85, 1-amino-5-isopropyl-12-methoxy-6,7-dihydropyrimido[5″,4″:4′,5′]pyrrolo[2′,3′:5,6][1,3]diazepino[1,7-a]indol-8(5H)-one], the half-inhibitory concentration (IC50) against G810R mutant RET kinase was 501 nM; on RET kinase Wild Type it was 389 nM; on G810S mutant RET kinase, 960 nM.

On to `Cc1cc(NC(=O)c2ccc3cc4n(c3c2)CCCc2c-4c3c(N)ncnc3n2C(C)C)nn1C` [Example 98, 1-amino-N-(1,5-dimethyl-1H-pyrazol-3-yl)-5-isopropyl-5,6,7,8-tetrahydropyrimido[5″,4″:4′,5′]pyrrolo[3′,2′: 3,4]azepino[1,2-a]indole-11-carboxamide], for which the half-maximal inhibitory concentration (IC50) against G810R mutant RET kinase came to 4070 nM; against RET kinase Wild Type it was 2210 nM; against G810S mutant RET kinase, 7950 nM.

In the case of `CC(C)n1c2c(c3c(N)ncnc31)-c1cc3ccc(C(=O)Nc4ccn(CC(=O)N(C)C)n4)cc3n1CCC2` [Example 99, 1-amino-N-(1-(2-(dimethylamino)-2-oxoethyl)-1H-pyrazol-3-yl)-5-isopropyl-5,6,7,8-tetrahydropyrimido[5″,4″:4′,5′]pyrrolo[3′,2′: 3,4]azepino[1,2-a]indole-11-carboxamide], the IC50 was 2210 nM against G810R mutant RET kinase, 881 nM at RET kinase Wild Type and 3250 nM against G810S mutant RET kinase.

Regarding `CC(C)n1c2c(c3c(N)ncnc31)-c1cc(C3CC3)nn1C(=O)NC2` [Example 106, 12-Amino-2-cyclopropyl-8-isopropyl-7,8-dihydropyrazolo[1,5-c]pyrimido[5′,4′:4,5]pyrrolo[3,2-e][1,3]diazepin-5(6H)-one], the IC50 came out at 2420 nM against G810R mutant RET kinase, 404 nM on RET kinase Wild Type and 3270 nM against G810S mutant RET kinase.

In the case of `CC(C)n1c2c(c3c(N)ncnc31)-c1cnn(C3CC3)c1C(=O)NC2` [Example 109, 11-amino-3-cyclopropyl-7-isopropyl-3,5,6,7-tetrahydro-4H-pyrazolo[3,4-c]pyrimido[5′,4′:4,5]pyrrolo[3,2-e]azepin-4-one 2,2,2-trifluoroacetate], the 50% inhibitory concentration (IC50) against G810R mutant RET kinase came out at 1810 nM; on RET kinase Wild Type it was 1780 nM; at G810S mutant RET kinase, 2270 nM.
